# Measurements taken from patent publication US10670605B2, “Cysteine reactive probes and uses thereof” (The Scripps Research Institute, priority 2015, dated 2020).
# Experiments:
# Experiment in all cases: Competitive isoTOP-ABPP in situ (fragment-treated cells)
# Assay type in all cases: cell-based
# [1] = target: T1, cysteines in MDA-MB-231 and Ramos cells (Homo sapiens, UniProt Q15398)
# T1 sequence (Q15398 1-846): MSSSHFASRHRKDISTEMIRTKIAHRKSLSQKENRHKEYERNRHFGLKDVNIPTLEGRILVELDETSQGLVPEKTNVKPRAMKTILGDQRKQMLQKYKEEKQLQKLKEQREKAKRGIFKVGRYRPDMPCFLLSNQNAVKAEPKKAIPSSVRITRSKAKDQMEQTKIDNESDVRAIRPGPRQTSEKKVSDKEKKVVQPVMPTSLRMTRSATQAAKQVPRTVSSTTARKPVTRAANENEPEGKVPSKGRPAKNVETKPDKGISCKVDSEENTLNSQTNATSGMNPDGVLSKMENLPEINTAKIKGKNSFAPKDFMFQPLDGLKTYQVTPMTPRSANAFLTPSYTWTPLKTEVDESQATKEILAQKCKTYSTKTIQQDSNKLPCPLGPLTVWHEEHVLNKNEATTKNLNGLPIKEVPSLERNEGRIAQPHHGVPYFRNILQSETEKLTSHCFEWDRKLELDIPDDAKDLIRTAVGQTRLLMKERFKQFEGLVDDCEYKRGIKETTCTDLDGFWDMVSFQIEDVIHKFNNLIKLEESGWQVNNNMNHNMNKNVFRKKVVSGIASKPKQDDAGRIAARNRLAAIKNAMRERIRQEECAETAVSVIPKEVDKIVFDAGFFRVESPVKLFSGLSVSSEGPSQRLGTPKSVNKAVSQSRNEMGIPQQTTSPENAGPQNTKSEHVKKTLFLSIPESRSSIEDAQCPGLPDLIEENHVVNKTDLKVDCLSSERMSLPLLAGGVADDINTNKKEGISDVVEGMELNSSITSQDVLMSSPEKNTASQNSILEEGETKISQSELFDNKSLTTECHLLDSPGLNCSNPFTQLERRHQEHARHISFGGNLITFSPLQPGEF
# [2] = target: T2, cysteines in MDA-MB-231 and Ramos cells (Homo sapiens, UniProt Q01433)
# T2 sequence (Q01433 1-825): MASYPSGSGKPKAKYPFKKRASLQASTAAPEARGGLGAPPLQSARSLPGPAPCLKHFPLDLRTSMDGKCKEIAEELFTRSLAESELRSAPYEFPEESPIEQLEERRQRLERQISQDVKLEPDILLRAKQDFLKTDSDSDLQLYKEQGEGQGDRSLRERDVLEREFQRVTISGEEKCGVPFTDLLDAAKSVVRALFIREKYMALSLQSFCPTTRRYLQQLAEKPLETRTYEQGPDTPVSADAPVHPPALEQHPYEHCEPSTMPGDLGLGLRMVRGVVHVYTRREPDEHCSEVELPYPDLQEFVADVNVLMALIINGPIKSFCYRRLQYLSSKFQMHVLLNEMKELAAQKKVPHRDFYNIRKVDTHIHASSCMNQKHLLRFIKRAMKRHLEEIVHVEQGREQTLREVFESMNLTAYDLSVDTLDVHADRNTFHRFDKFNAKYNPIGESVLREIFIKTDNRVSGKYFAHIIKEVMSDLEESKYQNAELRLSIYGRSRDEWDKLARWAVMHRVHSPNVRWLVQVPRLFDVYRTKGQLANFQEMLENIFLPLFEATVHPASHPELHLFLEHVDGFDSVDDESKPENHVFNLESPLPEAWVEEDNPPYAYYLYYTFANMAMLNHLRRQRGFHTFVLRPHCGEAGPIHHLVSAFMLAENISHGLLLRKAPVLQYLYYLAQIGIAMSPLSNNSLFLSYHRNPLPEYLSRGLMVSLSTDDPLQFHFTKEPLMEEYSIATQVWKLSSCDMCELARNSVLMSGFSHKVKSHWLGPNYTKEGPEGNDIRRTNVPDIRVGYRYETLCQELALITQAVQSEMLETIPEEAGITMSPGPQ
# [3] = target: T3, cysteines in MDA-MB-231 and Ramos cells (Homo sapiens, UniProt Q9UPQ0)
# T3 sequence (Q9UPQ0 1-1083): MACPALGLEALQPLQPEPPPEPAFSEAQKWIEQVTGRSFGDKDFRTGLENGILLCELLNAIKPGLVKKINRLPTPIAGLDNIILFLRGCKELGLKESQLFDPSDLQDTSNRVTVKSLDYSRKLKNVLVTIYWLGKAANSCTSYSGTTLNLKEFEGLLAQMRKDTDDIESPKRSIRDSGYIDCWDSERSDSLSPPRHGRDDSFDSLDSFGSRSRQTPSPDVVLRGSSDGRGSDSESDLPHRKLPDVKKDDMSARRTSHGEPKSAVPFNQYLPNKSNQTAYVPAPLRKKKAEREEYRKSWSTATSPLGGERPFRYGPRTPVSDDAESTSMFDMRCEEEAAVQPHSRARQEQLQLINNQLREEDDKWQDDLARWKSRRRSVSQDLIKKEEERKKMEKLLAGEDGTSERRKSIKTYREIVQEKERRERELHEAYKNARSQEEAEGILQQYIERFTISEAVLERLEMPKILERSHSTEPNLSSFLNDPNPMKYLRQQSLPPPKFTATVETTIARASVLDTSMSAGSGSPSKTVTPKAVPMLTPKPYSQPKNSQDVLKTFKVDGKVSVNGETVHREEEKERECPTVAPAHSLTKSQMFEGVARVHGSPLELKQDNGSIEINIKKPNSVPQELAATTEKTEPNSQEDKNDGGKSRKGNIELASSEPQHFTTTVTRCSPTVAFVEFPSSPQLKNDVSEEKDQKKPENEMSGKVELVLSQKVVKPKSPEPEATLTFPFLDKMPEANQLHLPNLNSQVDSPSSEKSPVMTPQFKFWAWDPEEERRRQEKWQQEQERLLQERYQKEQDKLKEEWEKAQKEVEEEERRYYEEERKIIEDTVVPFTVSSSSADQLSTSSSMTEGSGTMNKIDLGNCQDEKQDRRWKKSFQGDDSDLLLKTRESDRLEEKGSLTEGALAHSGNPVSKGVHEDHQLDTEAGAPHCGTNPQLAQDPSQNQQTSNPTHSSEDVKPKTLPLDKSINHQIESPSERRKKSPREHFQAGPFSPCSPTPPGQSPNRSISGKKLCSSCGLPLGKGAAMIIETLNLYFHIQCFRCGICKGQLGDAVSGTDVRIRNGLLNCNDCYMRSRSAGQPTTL
structure (smiles),measurement,setting,value
COc1ccc2c(c1)CCCN2C(=O)CCl [compound 2],isoTOP-ABPP reactivity Q15398_C129 DLGAP5,"[1]; 200 μM, insitu, 231",20.0
same,isoTOP-ABPP reactivity Q01433_C107 AMPD2,"[2]; 200 μM, insitu, 231",4.4
same,isoTOP-ABPP reactivity Q9UPQ0_C140 LIMCH1,"[3]; 200 μM, insitu, 231",20.0
COc1ccc(C2CC(c3cccs3)=NN2C(=O)CCl)cc1 (centres unmarked) [compound 4],isoTOP-ABPP reactivity Q01433_C107 AMPD2,[2]; 100 μM in situ 231,2.3
COc1cc2c(cc1OC)CN(C(=O)CCl)CC2 [compound 8],isoTOP-ABPP reactivity Q01433_C107 AMPD2,"[2]; 200 μM, insitu, 231",6.2
same,isoTOP-ABPP reactivity Q9UPQ0_C140 LIMCH1,"[3]; 200 μM, insitu, 231",20.0
O=C(CCl)N1CCC(Cc2ccccc2)CC1 [compound 9],isoTOP-ABPP reactivity Q01433_C107 AMPD2,"[2]; 200 μM, insitu, 231",3.1
O=C(CCl)N1CCN(S(=O)(=O)c2ccccc2F)CC1 [compound 10],isoTOP-ABPP ratio Q9UPQ0_C140,"[3]; 200 μM, insitu, 231",3.9
Cn1cc(S(=O)(=O)N2CCOCC2)cc1C(=O)NC(=O)CCl [compound 11],"isoTOP-ABPP ratio, cysteine Q15398_C129",[1]; 100 μM in situ 231,0.6
same,"isoTOP-ABPP ratio, cysteine Q01433_C107",[2]; 100 μM in situ 231,0.6
same,isoTOP-ABPP ratio Q9UPQ0_C140,[3]; 100 μM in situ 231,1.0
O=C(CCl)NC(=O)NC12CC3CC(CC(C3)C1)C2 [compound 12],isoTOP-ABPP ratio Q9UPQ0_C140,"[3]; 200 μM, insitu, 231",1.9
O=C(CCl)NCCc1c[nH]c2ccccc12 [compound 13],isoTOP-ABPP ratio Q9UPQ0_C140,"[3]; 200 μM, insitu, 231",1.1
O=C(CCl)NC12CC3CC(CC(C3)C1)C2 [compound 21],isoTOP-ABPP ratio Q9UPQ0_C140,"[3]; 200 μM, insitu, 231",0.8
CC(C)CCOCCNC(=O)CCl [compound 27],isoTOP-ABPP ratio Q15398_C129,"[1]; 200 μM, insitu, 231",0.5
same,isoTOP-ABPP ratio Q01433_C107,"[2]; 200 μM, insitu, 231",0.4
same,isoTOP-ABPP ratio Q9UPQ0_C140,"[3]; 200 μM, insitu, 231",0.7
O=C(CCl)N1CCN(CC(=O)N2CCOCC2)CC1 [compound 29],isoTOP-ABPP ratio Q15398_C129,"[1]; 200 μM, insitu, ramos",1.2
C=CC(=O)N(Cc1cccnc1)c1cc(C(F)(F)F)cc(C(F)(F)F)c1 [compound 31],isoTOP-ABPP ratio Q15398_C129,"[1]; 200 μM, insitu, ramos",2.4
same,isoTOP-ABPP ratio Q01433_C107,"[2]; 200 μM, insitu, 231",0.7
C=CC(=O)Nc1cc(F)c(N2CCN(C(=O)OC(C)(C)C)CC2)c(F)c1 [compound 38],isoTOP-ABPP ratio Q15398_C129,"[1]; 200 μM, insitu, 231",1.4
same,isoTOP-ABPP ratio Q9UPQ0_C140,"[3]; 200 μM, insitu, 231",2.5
Cc1ccc(C=C(C#N)C(=O)NCCN2CCOCC2)cc1 [compound 41],isoTOP-ABPP ratio Q01433_C107,"[2]; 200 μM, insitu, 231",0.5
same,isoTOP-ABPP ratio Q9UPQ0_C140,"[3]; 200 μM, insitu, 231",0.5
CC1CCc2ccccc2N1C(=O)CCl (centres unmarked) [compound 45],isoTOP-ABPP ratio Q9UPQ0_C140,"[3]; 200 μM, insitu, 231",20.0
O=C(CCl)Nc1cccc2ncccc12 [compound 51],isoTOP-ABPP ratio Q15398_C129,"[1]; 200 μM, insitu, 231",7.4
